According to patent publication US4585784A, “Pyrrole-2-acetylamino acid derivative compounds” (McNeilab, Inc., priority 1983, dated 1986):
Where two headings read alike, the source gives them in different places.

Experiments:
[1] = rat adjuvant arthritis test (antiinflammatory activity); format: in vivo, Female Wistar/Lewis rats; details: oral, daily for 4 days, inhibition of noninjected hind paw volume vs controls, compounds given as aqueous solutions of sodium salts
Experimental: The antiinflammatory activity of the compounds of the instant invention was measured using the rat adjuvant arthritis test [S. Wong, J. F. Gardocki and T. P. Pruss, J. Pharmacol. and Exp. Ther. 185, 127 (1973)]. Female Wistar/Lewis rats were given an injection of heat-killed Mycobacterium butyricum in light mineral oil. After 11 days, the animals which had developed an arthritic condition were selected and given daily oral doses of test drug for 4 days. Paw volumes were measured and the percent inhibition of the noninjected hind paw as compared to controls was calculated. The results (Table I) are expressed as ED50 (mg/kg/day).

[2] = gastric ulceration test (ability to induce gastric ulceration, 4 days oral dosing); details: in vivo; for selectivity ratio: therapeutic index in respect to gastric ulceration, * = significantly different from parent compound p ≤0.05, read-out: AII (antiinflammatory index, UD50/ED50)
Experimental: In addition to their antiinflammatory activity, the compounds were evaluated for their ability to induce gastric ulceration since gastric irritation is the most significant side effect following administration of prostaglandin biosynthesis inhibitors. As described by Wong et al., the dose (UD50 mg/kg/day) required to produce 50 percent ulcerogenic response following 4 days of oral dosing with test drug was determined. The results are shown in Table I. As described by Wong et al., a therapeutic index in respect to gastric ulceration, the "antiinflammatory index (AII)" defined as UD50 /ED50, was determined.

[3] = test system: prostaglandin biosynthesis; details: cited from earlier work
[4] = in vivo; cited from earlier work

| SMILES | ED50 ([1]; 96 h, read-out: ED50) [mg/kg] | TD50 at 96 h [2] [mg/kg] | selectivity ratio [2] | mode of action (in words) [3] | side effect (in words) [4] | ED50 [1] [mg/kg/day] | AII (antiinflammatory index, UD50/ED50) [2] | UD50 ([2]; 96 h) [mg/kg/day] |
| --- | --- | --- | --- | --- | --- | --- | --- | --- |
| Cc1cc(CC(=O)O)n(C)c1C(=O)c1ccc(Cl)cc1 [zomepirac, [5-(4-chlorobenzoyl)-1,4-dimethyl-1H-pyrrol-2-yl]acetic acid, reference compound] | 0.51 | 13.8 | 27.2 | inhibition of prostaglandin biosynthesis | gastrointestinal irritation |  |  |  |
| Cc1cc(CC(=O)NC(CC(=O)O)C(=O)O)n(C)c1C(=O)c1ccc(Cl)cc1 (centres unmarked) [VIII (4), N--{[5-(4-chlorobenzoyl)-1,4-dimethyl-1H--pyrrol-2-yl]-acetyl}-aspartic acid] | 0.76 | 71 | 93.1 |  |  |  |  |  |
| Cc1cc(CC(=O)N[C@@H](CCC(=O)O)C(=O)O)n(C)c1C(=O)c1ccc(Cl)cc1 [VIII (3), N--{[5-(4-chlorobenzoyl)-1,4-dimethyl-1H--pyrrol-2-yl]-acetyl}-glutamic acid] |  |  |  |  |  | 0.54 | 68.9 | 37.0 |
| Cc1cc(CC(=O)NC(CCCCN)C(=O)O)n(C)c1C(=O)c1ccc(Cl)cc1 (centres unmarked) [X, N^2 -{[5-(4-chlorobenzoyl)-1,4-dimethyl-1H-pyrrol-2-yl]-acetyl}-lysine-hydrate(5:8)] | 0.64 | 35.1 | 54.8 |  |  |  |  |  |
| Cc1cc(CC(=O)NC(C)C(=O)O)n(C)c1C(=O)c1ccc(Cl)cc1 (centres unmarked) [VIII (1), N--{[5-(4-chlorobenzoyl)-1,4-dimethyl-1H--pyrrol-2-yl]-acetyl}-alanine] | 0.67 | 25.4 | 37.6 |  |  |  |  |  |
| Cc1cc(CC(=O)N[C@@H](CCC(N)=O)C(=O)O)n(C)c1C(=O)c1ccc(Cl)cc1 [XI, N-{[5-(4-chlorobenzoyl)-1,4-dimethyl-1H-pyrrol-2-yl]-acetyl}-glutamine] | 0.72 | 33.4 | 46.5 |  |  |  |  |  |
| CSCCC(NC(=O)Cc1cc(C)c(C(=O)c2ccc(Cl)cc2)n1C)C(=O)O (centres unmarked) [VIII (2), N--{[5-(4-chlorobenzoyl)-1,4-dimethyl-1H--pyrrol-2-yl]-acetyl}-methionine] | 0.93 | 43.7 | 46.9 |  |  |  |  |  |
| Cc1cc(CC(=O)NCC(=O)O)n(C)c1C(=O)c1ccc(Cl)cc1 [Example VII, N-{[5-(4-chlorobenzoyl)-1,4-dimethyl-1H-pyrrol-2-yl]-acetyl}-glycine] | 0.61 | 21.1 | 34.4 |  |  |  |  |  |
